{"source": "patent US20030167999A1", "about": "“Crystal” (priority 2000, published 2003)", "origin": "cited, not measured here", "key": {"[1]": {"target": "hAR LBD M787V (Homo sapiens, UniProt P10275, M788V)", "sequence (P10275 whole entry M788V, the tested form may be a part)": "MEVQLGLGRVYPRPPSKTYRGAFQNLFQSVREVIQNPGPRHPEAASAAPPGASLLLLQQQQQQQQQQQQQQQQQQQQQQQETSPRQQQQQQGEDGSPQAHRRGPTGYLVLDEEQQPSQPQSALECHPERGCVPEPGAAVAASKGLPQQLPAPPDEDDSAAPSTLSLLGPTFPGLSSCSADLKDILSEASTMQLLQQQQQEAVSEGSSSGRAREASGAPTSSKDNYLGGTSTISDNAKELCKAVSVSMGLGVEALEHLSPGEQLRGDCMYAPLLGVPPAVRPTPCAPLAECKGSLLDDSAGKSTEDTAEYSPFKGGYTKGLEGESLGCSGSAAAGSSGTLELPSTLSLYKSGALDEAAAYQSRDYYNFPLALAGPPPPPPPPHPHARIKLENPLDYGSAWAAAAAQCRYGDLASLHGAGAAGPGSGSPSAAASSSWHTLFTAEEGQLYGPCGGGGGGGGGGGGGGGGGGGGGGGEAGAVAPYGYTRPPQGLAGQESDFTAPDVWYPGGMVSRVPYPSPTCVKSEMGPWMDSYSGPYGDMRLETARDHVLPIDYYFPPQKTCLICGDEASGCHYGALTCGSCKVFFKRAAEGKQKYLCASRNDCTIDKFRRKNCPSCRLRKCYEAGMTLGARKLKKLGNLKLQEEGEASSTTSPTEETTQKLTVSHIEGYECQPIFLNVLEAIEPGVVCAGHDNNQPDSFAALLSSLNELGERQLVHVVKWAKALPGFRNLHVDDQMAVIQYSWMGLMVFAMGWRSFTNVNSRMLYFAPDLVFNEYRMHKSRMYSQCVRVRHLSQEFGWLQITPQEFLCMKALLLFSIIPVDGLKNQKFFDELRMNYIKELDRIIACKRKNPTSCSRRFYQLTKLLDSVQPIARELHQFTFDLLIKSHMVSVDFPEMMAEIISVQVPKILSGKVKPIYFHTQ"}, "[2]": {"target": "hAR M7421 (Homo sapiens, UniProt P10275, M743I)", "sequence (P10275 whole entry M743I)": "as the sequence (P10275 whole entry M788V, the tested form may be a part) above, with M743I, V788M counted along it"}, "[3]": {"target": "hAR M742V (Homo sapiens, UniProt P10275, M743V)", "sequence (P10275 whole entry M743V)": "as the sequence (P10275 whole entry M788V, the tested form may be a part) above, with M743V, V788M counted along it"}, "[4]": {"target": "wild-type hAR (Homo sapiens, UniProt P10275)", "sequence (P10275 whole entry)": "as the sequence (P10275 whole entry M788V, the tested form may be a part) above, with V788M counted along it"}, "[5]": {"target": "T1, wild-type hPR (Homo sapiens, UniProt P06401)", "T1 sequence (P06401 1-933)": "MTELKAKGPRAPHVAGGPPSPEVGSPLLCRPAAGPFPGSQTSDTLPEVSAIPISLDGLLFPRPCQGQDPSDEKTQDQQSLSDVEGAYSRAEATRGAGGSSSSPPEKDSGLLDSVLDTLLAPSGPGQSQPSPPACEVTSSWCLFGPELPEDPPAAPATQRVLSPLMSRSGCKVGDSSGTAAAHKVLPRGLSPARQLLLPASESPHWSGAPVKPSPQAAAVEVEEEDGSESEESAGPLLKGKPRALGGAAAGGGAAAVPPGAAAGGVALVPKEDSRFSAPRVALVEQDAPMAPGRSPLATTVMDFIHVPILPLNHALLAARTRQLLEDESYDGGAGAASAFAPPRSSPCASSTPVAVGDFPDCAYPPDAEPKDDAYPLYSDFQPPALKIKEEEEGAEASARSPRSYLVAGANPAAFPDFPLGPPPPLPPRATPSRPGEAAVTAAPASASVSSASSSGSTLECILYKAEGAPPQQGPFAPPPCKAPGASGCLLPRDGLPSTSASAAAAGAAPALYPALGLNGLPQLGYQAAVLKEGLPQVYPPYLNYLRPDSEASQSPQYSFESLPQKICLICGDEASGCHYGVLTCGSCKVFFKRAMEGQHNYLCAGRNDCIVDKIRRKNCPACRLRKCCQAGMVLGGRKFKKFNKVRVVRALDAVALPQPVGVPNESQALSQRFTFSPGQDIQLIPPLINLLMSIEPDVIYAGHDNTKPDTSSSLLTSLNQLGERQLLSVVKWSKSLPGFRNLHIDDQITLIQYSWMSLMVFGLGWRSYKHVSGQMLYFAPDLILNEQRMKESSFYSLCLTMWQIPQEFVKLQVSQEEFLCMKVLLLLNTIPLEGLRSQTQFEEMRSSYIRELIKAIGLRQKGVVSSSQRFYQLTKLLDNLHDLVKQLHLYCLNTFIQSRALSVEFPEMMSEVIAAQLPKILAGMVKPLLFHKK", "conditions": "with respect to progesterone (RBA=100)"}, "[6]": {"target": "hAR mutant L707R (Homo sapiens, UniProt P10275, L708R)", "sequence (P10275 whole entry L708R)": "as the sequence (P10275 whole entry M788V, the tested form may be a part) above, with L708R, V788M counted along it", "conditions": "Scatchard plot analysis"}, "[7]": {"target": "AR receptor of LNCaP (T877A) (Homo sapiens, UniProt P10275, T878A)", "sequence (P10275 whole entry T878A)": "as the sequence (P10275 whole entry M788V, the tested form may be a part) above, with V788M, T878A counted along it", "conditions": "single point mutation T877A"}, "[8]": {"target": "hAR mutation F764S (Homo sapiens, UniProt P10275, F765S)", "sequence (P10275 whole entry F765S)": "as the sequence (P10275 whole entry M788V, the tested form may be a part) above, with F765S, V788M counted along it"}}}
{"compound": "C[C@]1(O)CC[C@H]2[C@@H]3CCC4=CC(=O)CCC4=C3C=C[C@@]21C", "note": "[R1881, metribolone]", "values": [{"measurement": "binding", "setting": "[1]", "value": "undetectable or strongly reduced"}, {"measurement": "effect of mutation on binding affinity", "setting": "[2]", "value": "dramatically reduce"}, {"measurement": "effect of mutation on binding affinity", "setting": "[3]", "value": "dramatically reduce"}, {"measurement": "relative binding affinity (RBA)", "setting": "[4]", "value": 290}, {"measurement": "relative binding affinity (RBA)", "setting": "[5]", "value": 190}, {"measurement": "binding affinity", "setting": "[6]", "value": "undetectable"}, {"measurement": "R1881 binding versus wild type", "setting": "[7]", "value": "identical"}, {"measurement": "ligand dissociation", "setting": "[8]", "value": "rapid ligand dissociation"}]}
